Source: paper PMC12360161, “Identifying 14-3-3 interactome binding sites with deep learning” (Digital Discovery, 2025)
Where two headings read alike, the source gives them in different places. Where a SMILES comes first, the peptide text is derived from it. Where no end group is shown, it is not given here. [ ]: non-standard residue; d: D form. The star is where a group is joined. 5FAM = O=C1OC2(c3ccc(O)cc3Oc3cc(O)ccc32)c2ccc(C(=O)*)cc21; pT = C[C@@H](OP(=O)(O)O)[C@H](N)C(=O)O; pS = N[C@@H](COP(=O)(O)O)C(=O)O; Ahx = NCCCCCC(=O)O

Experiments:
[1] = target: T1, full-length (FL) human 14-3-3γ protein (Homo sapiens, UniProt P61981); experiment: Fluorescence anisotropy (FA) assay of FAM-labeled peptides binding to 14-3-3γ; details: for Kd: 14-3-3γ FL dilution series (starting at 500 μM) to 10 nM FAM-labeled peptide, 10 mM HEPES pH 7.4, 150 mM NaCl, 0.1% Tween20, 1 mg/mL BSA, room temperature, Hill fit, mean ± SD; for Binding in the FA assay (in words): 14-3-3γ, 10 nM FAM-labeled peptide
T1 construct: The full-length (FL) human 14-3-3γ protein was expressed from a pPROEX plasmid; His6; made in house; host or cells: E. coli BL21(DE3)
T1 sequence (P61981 1-247): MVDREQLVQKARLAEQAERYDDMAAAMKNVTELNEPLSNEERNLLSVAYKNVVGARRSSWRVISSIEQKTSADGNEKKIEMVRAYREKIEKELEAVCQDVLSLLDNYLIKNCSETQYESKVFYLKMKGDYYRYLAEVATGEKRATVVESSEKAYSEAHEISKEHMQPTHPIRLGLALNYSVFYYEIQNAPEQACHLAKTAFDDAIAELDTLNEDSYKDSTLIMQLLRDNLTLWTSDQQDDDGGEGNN
Experimental: To study the binding of the fluorescently labelled peptides to 14-3-3, Fluorescence Anisotropy (FA) assays were carried out.[23] In the case of binding, tumbling of the peptide with the attached fluorophore will slow down and the emitted light will be polarized. This will lead to a higher anisotropy.[79] For all experiments, 14-3-3γ was used as it was shown in multiple experiments to be the strongest binding variant suitable for experimental screening.[80] The FAM-labeled peptides and the 14-3-3γ FL protein were diluted in buffer (10 mM HEPES pH 7.4, 150 mM NaCl, 0.1% Tween20, 1 mg mL^−1 BSA).
Dilution series of 14-3-3γ proteins (starting at 500 μM) were made to 10 nM of the FAM-labeled peptides in black, round-bottom 384-microwell (Corning) in a final sample volume of 10 μL. Fluorescence anisotropy values were measured using a Tecan Spark Control at room temperature filter set lex: 485 ± 20 nm, lem: 535 ± 25 nm, mirror: Dichroic 510, flashes: 30, integration time: 40 μs, settle time: 1 μs; gain: optimized per peptide, and Z-position: calculated from well. Wells containing only FAM-peptide were used to set as G-factor. The KD values were obtained from fitting the data using Origin 2020 with a Sigmoid Hill1 function (using the Hill equation). Data shown is the average and standard deviation of triplicates. For dose–response curves on a linear scale seep SI Fig. S2.

[2] = target: T2, full-length (FL) human 14-3-3γ protein (human, UniProt P61981 1-247); experiment: fluorescence polarisation; fluorescence anisotropy; dilution series of 14-3-3γ (starting at 500 μM) to 10 nM FAM-labeled peptide; 10 mM HEPES pH 7.4, 150 mM NaCl, 0.1% Tween20, 1 mg/mL BSA; room temperature; Hill fit; triplicates; details: both partners purified
T2 construct: 14-3-3 gamma, human, full length; also called 14-3-3γ FL
T2 sequence (looked up): T1 sequence (P61981 1-247)

[3] = target: T2, full-length (FL) human 14-3-3γ protein; experiment: as above; details: both partners purified; remark: listed apart in the source

Molecule: CC(C)C[C@H](NC(=O)[C@H](CO)NC(=O)[C@H](CC(=O)O)NC(=O)[C@H](CC(=O)O)NC(=O)CNC(=O)[C@H](CC(N)=O)NC(=O)[C@H](COP(=O)(O)O)NC(=O)[C@@H](NC(=O)[C@H](CCCCN)NC(=O)[C@H](CCCNC(=N)N)NC(=O)[C@H](CC(N)=O)NC(=O)[C@H](CC(N)=O)NC(=O)[C@H](CC(N)=O)NC(=O)[C@H](CC(N)=O)NC(=O)CCCCCNC(=O)c1ccc2c(c1)C(=O)OC21c2ccc(O)cc2Oc2cc(O)ccc21)[C@@H](C)O)C(=O)N[C@@H](Cc1ccccc1)C(N)=O [Peptide 5] ({5FAM-Ahx}-NNNNRKT[pS]NGDDSLF-NH2)
- Kd ([1]; n = 3, read-out: Kd): > 500 µM
- Binding in the FA assay (in words) [1]: no binding

Molecule: CSCC[C@H](NC(=O)[C@H](CCCNC(=N)N)NC(=O)[C@H](CCCNC(=N)N)NC(=O)[C@H](CC(C)C)NC(=O)[C@H](CCC(=O)O)NC(=O)[C@H](CCCNC(=N)N)NC(=O)CNC(=O)CCCCCNC(=O)c1ccc2c(c1)C(=O)OC21c2ccc(O)cc2Oc2cc(O)ccc21)C(=O)N[C@@H](COP(=O)(O)O)C(=O)N[C@@H](CC(=O)O)C(=O)N[C@@H](CCC(=O)O)C(=O)N[C@@H](Cc1ccccc1)C(=O)N[C@H](C(=O)N[C@@H](CC(=O)O)C(=O)N[C@@H](CO)C(=O)N[C@@H](Cc1ccccc1)C(N)=O)C(C)C [Peptide 7] ({5FAM-Ahx}-GRELRRM[pS]DEFVDSF-NH2)
- Kd ([1]; n = 3, read-out: Kd): > 100 µM

Molecule: C[C@H](NC(=O)[C@H](CO)NC(=O)[C@@H]1CCCN1C(=O)[C@H](CO)NC(=O)CNC(=O)[C@H](COP(=O)(O)O)NC(=O)[C@H](CCC(=O)O)NC(=O)[C@H](CO)NC(=O)[C@H](CCCNC(=N)N)NC(=O)[C@H](CCCCN)NC(=O)CNC(=O)[C@@H]1CCCN1C(=O)[C@H](C)NC(=O)CCCCCNC(=O)c1ccc2c(c1)C(=O)OC21c2ccc(O)cc2Oc2cc(O)ccc21)C(=O)NCC(=O)NCC(N)=O [Peptide 8] ({5FAM-Ahx}-APGKRSE[pS]GSPSAGG-NH2)
- Kd ([1]; n = 3, read-out: Kd): > 100 µM

Molecule: CC[C@H](C)[C@H](NC(=O)CNC(=O)[C@H](C)NC(=O)[C@H](CCC(=O)O)NC(=O)[C@H](CCC(=O)O)NC(=O)CCCCCNC(=O)c1ccc2c(c1)C(=O)OC21c2ccc(O)cc2Oc2cc(O)ccc21)C(=O)NCC(=O)N[C@@H](CC(=O)O)C(=O)N[C@H](C(=O)N1CCC[C@H]1C(=O)N[C@@H](CO)C(=O)N[C@@H](CC(C)C)C(=O)N[C@@H](CCC(=O)O)C(=O)N[C@@H](CC(=O)O)C(=O)N[C@@H](CCC(=O)O)C(=O)N[C@@H](C)C(N)=O)[C@@H](C)OP(=O)(O)O [Peptide 9] ({5FAM-Ahx}-EEAGIGD[pT]PSLEDEA-NH2)
- Kd ([1]; n = 3): > 500 µM
- Binding in the FA assay (in words) [1]: did not bind

Molecule: CC(C)C[C@H](NC(=O)CCCCCNC(=O)c1ccc2c(c1)C(=O)OC21c2ccc(O)cc2Oc2cc(O)ccc21)C(=O)N[C@@H](Cc1c[nH]cn1)C(=O)N[C@@H](CCC(=O)O)C(=O)N[C@@H](CCC(=O)O)C(=O)N[C@H](C(=O)N1CCC[C@H]1C(=O)N1CCC[C@H]1C(=O)N[C@H](C(=O)N[C@H](C(=O)N[C@@H](CO)C(=O)N[C@@H](CO)C(=O)N[C@@H](CC(=O)O)C(=O)N[C@@H](CO)C(=O)N[C@@H](CCC(=O)O)C(=O)N[C@@H](CCC(=O)O)C(N)=O)[C@@H](C)O)[C@@H](C)OP(=O)(O)O)[C@@H](C)O [Peptide 10] ({5FAM-Ahx}-LHEETPP[pT]TSSDSEE-NH2)
- Kd ([1]; n = 3): > 500 µM
- Binding in the FA assay (in words) [1]: did not bind

B1: Tau pS198 peptide (peptide 4), FAM-labelled (peptide)
peptide: {5FAM-Ahx}-SGDRSGY[pS]SPGSPGT-NH2
SMILES: C[C@@H](O)[C@H](NC(=O)CNC(=O)[C@@H]1CCCN1C(=O)[C@H](CO)NC(=O)CNC(=O)[C@@H]1CCCN1C(=O)[C@H](CO)NC(=O)[C@H](COP(=O)(O)O)NC(=O)[C@H](Cc1ccc(O)cc1)NC(=O)CNC(=O)[C@H](CO)NC(=O)[C@H](CCCNC(=N)N)NC(=O)[C@H](CC(=O)O)NC(=O)CNC(=O)[C@H](CO)NC(=O)CCCCCNC(=O)c1ccc2c(c1)C(=O)OC21c2ccc(O)cc2Oc2cc(O)ccc21)C(N)=O
notes: Tau, seven residues before and after phosphosite 198; numbers count on: P10636-8; source: synthetic peptide, bought: GenScript
- Kd [2]: 71 µM

B2: FOXO3 pS413 peptide (peptide 1), FAM-labelled (peptide)
peptide: {5FAM-Ahx}-GLMQRSS[pS]FPYTTKG-NH2
SMILES: CSCC[C@H](NC(=O)[C@H](CC(C)C)NC(=O)CNC(=O)CCCCCNC(=O)c1ccc2c(c1)C(=O)OC21c2ccc(O)cc2Oc2cc(O)ccc21)C(=O)N[C@@H](CCC(N)=O)C(=O)N[C@@H](CCCNC(=N)N)C(=O)N[C@@H](CO)C(=O)N[C@@H](CO)C(=O)N[C@@H](COP(=O)(O)O)C(=O)N[C@@H](Cc1ccccc1)C(=O)N1CCC[C@H]1C(=O)N[C@@H](Cc1ccc(O)cc1)C(=O)N[C@H](C(=O)N[C@H](C(=O)N[C@@H](CCCCN)C(=O)NCC(N)=O)[C@@H](C)O)[C@@H](C)O
notes: forkhead box O3 (FOXO3), seven residues before and after phosphosite 413; also called FOXO pS413; source: synthetic peptide, bought: GenScript
- Kd [2]: 1.6 µM

B3: Notch 4 pS1847 peptide (peptide 3), FAM-labelled (peptide)
peptide: {5FAM-Ahx}-FPRARTV[pS]VSVPPHG-NH2
SMILES: CC(C)[C@H](NC(=O)[C@H](COP(=O)(O)O)NC(=O)[C@@H](NC(=O)[C@@H](NC(=O)[C@H](CCCNC(=N)N)NC(=O)[C@H](C)NC(=O)[C@H](CCCNC(=N)N)NC(=O)[C@@H]1CCCN1C(=O)[C@H](Cc1ccccc1)NC(=O)CCCCCNC(=O)c1ccc2c(c1)C(=O)OC21c2ccc(O)cc2Oc2cc(O)ccc21)[C@@H](C)O)C(C)C)C(=O)N[C@@H](CO)C(=O)N[C@H](C(=O)N1CCC[C@H]1C(=O)N1CCC[C@H]1C(=O)N[C@@H](Cc1c[nH]cn1)C(=O)NCC(N)=O)C(C)C
notes: Notch-4, seven residues before and after phosphosite 1847; also called NOTCH pS1847; source: synthetic peptide, bought: GenScript
- Kd [2]: 70 µM

B4: Tau-pS324 peptide (peptide)
chain: KVTSKCG[pS]LGNIHHK
- Kd [3]: > 100 µM

B5: Tau pT245 peptide (peptide 2), FAM-labelled (peptide)
peptide: SAKSRLQ[pT]APVPMPD-NH2
modifications: not fully specified (N-terminus)
notes: Tau, seven residues before and after phosphosite 245; numbers count on: P10636-8; source: synthetic peptide, bought: GenScript
- Kd [3]: 8.5 ± 0.2 µM
- Kd [2]: 8.6 µM

B6: Tau-pS214 peptide (peptide)
chain: GSRSRTP[pS]LPTPPTR
- Kd [3]: 16.4 ± 0.9 µM

B7: BAD pS134 peptide (peptide 6), FAM-labelled (peptide)
peptide: {5FAM-Ahx}-KGLPRPK[pS]AGTATQM-NH2
SMILES: CSCC[C@H](NC(=O)[C@H](CCC(N)=O)NC(=O)[C@@H](NC(=O)[C@H](C)NC(=O)[C@@H](NC(=O)CNC(=O)[C@H](C)NC(=O)[C@H](COP(=O)(O)O)NC(=O)[C@H](CCCCN)NC(=O)[C@@H]1CCCN1C(=O)[C@H](CCCNC(=N)N)NC(=O)[C@@H]1CCCN1C(=O)[C@H](CC(C)C)NC(=O)CNC(=O)[C@H](CCCCN)NC(=O)CCCCCNC(=O)c1ccc2c(c1)C(=O)OC21c2ccc(O)cc2Oc2cc(O)ccc21)[C@@H](C)O)[C@@H](C)O)C(N)=O
notes: Bcl-2-associated agonist of cell death (BAD), seven residues before and after phosphosite 134; source: synthetic peptide, bought: GenScript
- Kd [2]: 15.9 µM
